Laboratory results reported in US20220202912A1, “Polypeptides in Preparation of Drugs for Treatment or Prevention of Rheumatoid Arthritis” (priority 2011, published 2022).
“And” between values parts separate entries of the source, which are not always exact repeats. Equal values may be shown once. Where no end group is shown, it is not given here.

Columns and labels:
[1] = test system: CIA transgenic TNF-luc mice; assay: collagen type II-induced arthritis in transgenic TNF-luc mice (swelling, scores, weight); type: in vivo, BALB/c transgenic TNF-luc mice; parameters: key to joint index score / arthritis index score: 0–4 per paw, four paws summed, max 16; key to swelling degree of right ankle: cm, day n thickness minus initial ankle thickness; key to systemic score: systemic score points, max 8; details: for left ankle swelling / right ankle swelling changes / arthritis index score / clinical score: Adalimumab 8 mg/kg, mPEG-SC20k-HM-3 20 mg/kg; for right ankle swelling changes: CIA TNF-luc mice; for right ankle swelling changes / arthritis index score / clinical score: mean ± SD; for arthritis index score / clinical score: CIA chronic model; for systemic score / joint index score / swelling degree of right ankle: 20 mg/kg
Description: 8 animals are randomly divided into 4 groups (n=2), a normal group, a model group, a positive drug group and a test group. On day 0, for the primary immunization, mice are hypodermically injected with 50 μL collagen emulsifier (containing CII 100 μg/ mouse) at the tail root of mice for sensitization. On day 0, initial ankle widths, initial foot palm widths and initial toe thicknesses of left and right feet of mice in each group are measured separately.
After day 21, the same dosage of emulsifier is used for second immunization at the tail root. After the symptoms such as redness and swelling of joints appear on the four toes of mice, continuous administration is performed for 15 days. The normal group and the model group are separately hypodermically injected with 0.9% normal saline (0.2 mL/20 g of body weight), once every 2 days, 7 times in total. The positive drug Adalimumab group is hypodermically injected with Adalimumab (8 mg/kg of body weight), once every 15 days, once in total. The test treatment group is hypodermically injected with mPEG-SC20k-HM-3 (20 mg/kg of body weight), once every 2 days, 7 times in total.
Every 2 days, the thickness of the ankle, the width of the foot palm and the thickness of the toes of each group of mice are measured with a vernier caliper.
Swelling degree of left ankle (cm)=swelling thickness of left ankle on day n of the experiment−measured initial thickness of left ankle.
Swelling degree of right ankle (cm)=swelling thickness of right ankle on day n of the experiment−measured initial thickness of right ankle.
The joints of the mouse paw are observed with naked eyes, and the joints are scored every 2 days from day 30. Scoring is performed in terms of level 0 to level 4, 5 levels in total. 0=no erythema or swelling; 1=slight erythema or swelling, with erythema or swelling on one of the front/hind toe joints; 2=erythema or swelling on more than one toe; 3=swelling of paw beneath the ankle or wrist joint; 4=swelling of all paws including the ankle joint. Four paws of the mice are scored separately, and the highest score is 16 points.
After the secondary inflammation appears, systemic scoring is performed every 2 days, and the scoring standards are as follows:
Hind foot: no swelling=0 point, swelling of one hind foot=1 point, swelling of two hind feet=2 points.
Front foot: no swelling=0, swelling of one front foot=1 point, swelling of two front feet=2 points.
Ears: no redness symptoms and nodules=0 point, redness symptoms or nodules of one ear=1 point, red symptoms and nodules of two ears=2 points.
Nose: no swelling=0 point, obvious swelling=1 point.
Tail: no nodule=0 point, nodules=1 point; the highest score is 8 points.

[2] = test system: macrophages (PMA-induced U937 cells); assay: Western blot of protein expression in macrophages (PMA-induced U937 cells); type: cell-based, human
Description: 3.1 U937 cells are added to a 6-well plate (1.5×10^5 cells/mL), PMA (25 ng/mL) is used for induction for 48 h, and the cells adhere and differentiate into macrophages. Positive drug Adalimumab (25 μg/mL, 50 μg/mL, 100 μg/mL, 200 μg/mL, 400 μg/mL), Avastin (25 μg/mL, 50 μg/mL) are added, the final concentrations of mPEG-SC20k-HM-3 are 2.25, 4.5, 9.0, 13.5, 18.0, 36 μmol/L, and isovolumetric PBS is added to the blank group and the model group. The cells are incubated in a CO2 incubator at 37° C. for 24 or 48 h. Rat synovial cells are induced with LPS for 24 h and then mPEG-SC20k-HM-3 is administrated to final concentrations of 2.25, 4.5, 9.0, 13.5, 18.0 μmol/L, and the cells are incubated in a CO2 incubator at 37° C. for 48 h.
3.3 A protein extract solution is added at 20 μL/1×10^5 cells, and the cells are pipetted and dispersed, and stand at 4° C. for 30 min to lyse the cells.
3.4 1/4 volume of 5×protein loading buffer is added, and boiling water bath is performed for 5-10 min.
3.5 20 μL of protein sample is taken and 10% SDS-PAGE electrophoresis is performed.
3.6 The protein on the gel is transferred to the PVDF membrane by using a wetting transfer method with a constant current of 100 mA for 1-2.5 h.
3.7 The PVDF membrane is blocked with a blocking solution at room temperature for 2 h.
3.8 The membrane is washed for 3 times with PBST, 5 min each time. A primary antibody is added and the membrane stands at 4° C. overnight or is incubated at 37° C. for 2 h.
3.9 The membrane is washed for 3 times with PBST, 5 min each time. A secondary antibody is added and the membrane is incubated at room temperature for more than 2 h.
3.10 The membrane is exposed in a gel imager using an ECL detection kit.

[3] = with the increase of the dosage

Substance: mPEG-SC20k-Ile-Val-Arg-Arg-Ala-Asp-Arg-Ala-Ala-Val-Pro-Gly-Gly-Gly-Gly-Arg-Gly-Asp ({mPEG‑SC 20k}-IVRRADRAAVPGGGGRGD) [polypeptide III, No. 3]
- left ankle swelling ([1]; 0 d): 0.000 ± 0.000 cm
- right ankle swelling changes ([1]; 0 d): 0.000 ± 0.000 cm
- left ankle swelling ([1]; 12 d): 0.011 ± 0.004 cm
- right ankle swelling changes ([1]; 12 d): 0.005 ± 0.021 cm
- left ankle swelling ([1]; 15 d): 0.028 ± 0.023 cm
- right ankle swelling changes ([1]; 15 d): 0.003 ± 0.004 cm
- left ankle swelling ([1]; 18 d): 0.016 ± 0.008 cm
- right ankle swelling changes ([1]; 18 d): 0.011 ± 0.016 cm
- left ankle swelling ([1]; 21 d): 0.011 ± 0.010 cm
- right ankle swelling changes ([1]; 21 d): 0.010 ± 0.011 cm
- left ankle swelling ([1]; 24 d): 0.008 ± 0.006 cm
- right ankle swelling changes ([1]; 24 d): 0.007 ± 0.005 cm
- left ankle swelling ([1]; 27 d): 0.009 ± 0.004 cm
- right ankle swelling changes ([1]; 27 d): 0.004 ± 0.014 cm
- left ankle swelling ([1]; 30 d): 0.003 cm
- right ankle swelling changes ([1]; 30 d): 0.015 ± 0.001 cm
- arthritis index score ([1]; 30 d): 5.50 ± 0.71
- clinical score ([1]; 30 d): 4.50 ± 0.71
- left ankle swelling ([1]; 33 d): 0.007±0.013 cm
- right ankle swelling changes ([1]; 33 d): 0.018 ± 0.020 cm
- arthritis index score ([1]; 33 d): 7.00 ± 1.41
- clinical score ([1]; 33 d): 4.00 ± 0.00
- left ankle swelling ([1]; 36 d): 0.006 ± 0.006 cm
- right ankle swelling changes ([1]; 36 d): 0.006 ± 0.008 cm
- arthritis index score ([1]; 36 d): 6.50 ± 0.71
- clinical score ([1]; 36 d): 4.00 ± 0.00
- left ankle swelling ([1]; 39 d): 0.026±0.023 cm
- right ankle swelling changes ([1]; 39 d): 0.001 ± 0.007 cm
- arthritis index score ([1]; 39 d): 6.00 ± 0.00
- clinical score ([1]; 39 d): 4.00 ± 0.00
- left ankle swelling ([1]; 42 d): 0.004 ± 0.006 cm
- right ankle swelling changes ([1]; 42 d): 0.017 ± 0.004 cm
- arthritis index score ([1]; 42 d): 4.50 ± 0.71
- clinical score ([1]; 42 d): 4.00 ± 0.00
- left ankle swelling ([1]; 45 d): 0.011±0.004 cm
- right ankle swelling changes ([1]; 45 d): 0.000 ± 0.006 cm
- arthritis index score ([1]; 45 d): 4.50 ± 0.71
- clinical score ([1]; 45 d): 4.00 ± 0.00
- left ankle swelling ([1]; 48 d): 0.001±0.021 cm
- right ankle swelling changes ([1]; 48 d): 0.001 ± 0.007 cm
- arthritis index score ([1]; 48 d): 4.50 ± 0.71
- clinical score ([1]; 48 d): 5.00 ± 0.00
- left ankle swelling ([1]; 51 d): 0.023±0.007 cm and 0.023 cm
- right ankle swelling changes ([1]; 51 d): 0.005 ± 0.007 cm
- arthritis index score ([1]; 51 d): 4.50 ± 0.71
- clinical score ([1]; 51 d): 4.00 ± 0.00
- systemic score ([1]; day 33): 4.00±0.00
- joint index score ([1]; day 36): 6.50±0.71
- swelling degree of right ankle ([1]; day 36): 0.006±0.008
- systemic score ([1]; day 36): 4.00±0.00
- joint index score ([1]; day 39): 6.00±0.00
- swelling degree of right ankle ([1]; day 39): 0.001±0.008
- systemic score ([1]; day 39): 4.00±0.00
- joint index score ([1]; day 42): 4.50±0.7
- swelling degree of right ankle ([1]; day 42): 0.001±0.007
- systemic score ([1]; day 42): 4.00±0.00
- joint index score ([1]; day 45): 4.50±0.71
- swelling degree of right ankle ([1]; day 45): 0.000±0.006
- systemic score ([1]; day 45): 4.00±0.00
- joint index score ([1]; day 48): 4.50±0.71
- swelling degree of right ankle ([1]; day 48): 0.001±0.007
- joint index score ([1]; day 51): 4.50±0.71
- swelling degree of right ankle ([1]; day 51): 0.005±0.007
- systemic score ([1]; day 51): 4.00±0.00
- dose with the best inhibitory effect on the expression of Integrin α5, Integrin β1, VEGFR2, HIF-1β, IL-6 proteins [2]: 13.5 µM
- dose with the best inhibitory effect on the expression of TNFR1 protein [2]: 18 µM
- dose with the best inhibitory effect on the expression of TNFR2, NF-κB and TNF-α proteins [2]: 4.5 µM
- expression of HIF-1β and IL-6 protein in macrophages [2, 3]: down-regulated
- expression of NF-κB protein factors in nuclei [2, 3]: down-regulated
- expression of TNFR1 and TNFR2 protein factors in macrophages [2, 3]: down-regulated
- expression of integrin α5, Integrin β1 and VEGFR2 proteins in macrophages [2, 3]: down-regulated
